This experiment addresses T1, Taste receptor type 2 member 31 (Homo sapiens, UniProt P59538).
T1 sequence (P59538 whole entry): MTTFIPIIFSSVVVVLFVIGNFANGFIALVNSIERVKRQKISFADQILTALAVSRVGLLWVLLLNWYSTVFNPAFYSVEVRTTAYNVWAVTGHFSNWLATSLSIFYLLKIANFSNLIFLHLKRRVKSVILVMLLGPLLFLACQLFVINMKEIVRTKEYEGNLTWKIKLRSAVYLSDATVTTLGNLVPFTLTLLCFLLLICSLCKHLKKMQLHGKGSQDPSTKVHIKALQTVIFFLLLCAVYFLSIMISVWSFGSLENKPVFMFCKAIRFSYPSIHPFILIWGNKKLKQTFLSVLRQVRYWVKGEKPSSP
In words: Antagonist activity at human TAS2R31 expressed in HEK-293T cells stably expressing Galpha16gust44 assessed as inhibition receptor response to saccharin by fluorescence assay. Type of experiment: cell-based.

Broadly, the IC50 is the concentration needed to halve the response being measured. Regarding `C=C1CC[C@H]2C(C)(C)[C@@H](OC(C)=O)CC[C@]2(C)[C@H]1CC/C(C)=C/C(=O)O`, the IC50 is 8 µM.

As to `CC(=O)O[C@H]1CC[C@]2(C)[C@@H](CC/C(C)=C/C(=O)O)C(C)=CC[C@H]2C1(C)C`, the half-inhibitory concentration (IC50) was over 25 µM.
